The results in this text go back to PubChem BioAssay (NCI).

What all share (test): NCI tumour cell line growth inhibition, 48 h
In experiment [1] the test system is SF-295 CNS.
The subject of experiment [2] is TK-10 renal.
In experiment [3] the test system is EKVX NSCLC.
Experiment [4] has as its system SN12C renal.
The test system of experiment [5] is SW-620 colon.
The subject of experiment [6] is NCI-H23 lung.
The subject of experiment [7] is SK-OV-3 ovarian.
In experiment [8] the test system is OVCAR-8 ovarian.
For experiment [9], the system named is A498 renal.
In experiment [10] the test system is HL-60(TB) leukemia.
The test system of experiment [11] is HOP-62 NSCLC.
Experiment [12] deals with CAKI-1 renal.
Experiment [13] has as its system MCF7 breast.
Experiment [14] deals with MDA-MB-435.
The test system of experiment [15] is MDA-MB-231 breast.
The test system of experiment [16] is A549 NSCLC.
Experiment [17] has as its system NCI/ADR-RES ovarian.
The test system of experiment [18] is SF-539 CNS.
The test system of experiment [19] is HOP-92 NSCLC.

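The compound was tested at five concentrations on cells cultured in 96-well plates, with a 48-hour exposure period. TGI: total growth inhibition.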 A value given as a limit tells only on which side of the number the result lay.

With `Cc1nc(Nc2ccc(F)cc2)c2sc(=S)n(-c3ccc(F)cc3)c2n1`, the TGI worked out at 27.3 µM in experiment [1]; 27.5 µM in experiment [2]; 26.2 µM in experiment [3]; 27 µM in [4]; 21.4 µM in experiment [5]; 16.9 µM in experiment [6]. In addition, the TGI in experiment [7] is 40.2 µM; in experiment [8] it was 35.9 µM; in experiment [9], 33.4 µM; in experiment [10], 74.1 µM; in experiment [11], 24.1 µM; in [12] it was 35.5 µM. The TGI was 18.7 µM in experiment [13]; 22.7 µM in experiment [14]; 26.9 µM in [15]; 29.5 µM in experiment [16]; 37.3 µM in experiment [17].

For `O=C1C=CC(=O)c2c(NCC3CC3)ccc(NCC3CC3)c21`, the TGI in experiment [1] is 79.8 µM; in experiment [2], greater than 100 µM; in [3], greater than 100 µM; in [4], greater than 100 µM; in [5], greater than 100 µM; in experiment [6] it was 89.4 µM. In addition, the TGI in experiment [8] was greater than 100 µM; in experiment [9], greater than 100 µM; in [10], 31.8 µM; in [11], greater than 100 µM; in experiment [13], 48.6 µM; in experiment [18] it was greater than 100 µM. In addition, the TGI in experiment [14] was 44.8 µM; in [15], greater than 100 µM; in experiment [16] it was greater than 100 µM; in experiment [17] it was greater than 100 µM.

Consider `CSc1nc(-c2ccc(C)cc2)c(C#N)c(=O)[nH]1`, for which the TGI in experiment [1], in experiment [2], in [3], in [4], in [5] and in experiment [6] was greater than 100 µM in each case. The TGI in experiment [7], in experiment [8], in experiment [19], in experiment [9], in experiment [10] and in [11] was greater than 100 µM in each case. The TGI in experiment [12], in experiment [13], in experiment [18], in [14], in experiment [15] and in experiment [16] was greater than 100 µM in each case. Further, the TGI in [17] is greater than 100 µM.

As to `O=C1c2cc3c(cc2CC12Cc1cc4c(cc1C2=O)CCC4)CCC3`, the TGI in experiment [1], in experiment [2], in experiment [3], in experiment [4], in [5] and in experiment [6] was greater than 100 µM throughout. Besides, the TGI in experiment [7], in experiment [8], in [9], in [10], in experiment [11] and in experiment [12] was greater than 100 µM each time. Further, the TGI in [13], in experiment [18], in experiment [14], in experiment [15], in [16] and in [17] was greater than 100 µM each time.

With `COc1cccc(Nc2nc(-c3cccs3)nc3ccc(Br)cc23)c1`, the TGI in [1], in [2], in [3], in experiment [4], in experiment [5] and in [6] was greater than 100 µM in each case. Also, the TGI in experiment [7] is greater than 100 µM; in [8], greater than 100 µM; in experiment [19] it was greater than 100 µM; in [9] it was greater than 100 µM; in experiment [10], greater than 100 µM; in experiment [11] it was 57.9 µM. Also, the TGI in [12] is greater than 100 µM; in experiment [13], 63.8 µM; in experiment [18] it was greater than 100 µM; in [14] it was greater than 100 µM; in experiment [15], greater than 100 µM; in [16], greater than 100 µM. The TGI in experiment [17] was greater than 100 µM.

As for `COc1ccc(-c2cc(-c3ccc(Nc4ccnc5cc(Cl)ccc45)cc3)nc(N)c2C#N)cc1`, the TGI in experiment [1], in experiment [2], in [3], in experiment [5], in experiment [6] and in experiment [7] was greater than 100 µM throughout. The TGI in experiment [8], in experiment [19], in [9], in experiment [10], in experiment [11] and in experiment [12] was greater than 100 µM in each case. In addition, the TGI in experiment [13], in experiment [18], in experiment [14], in experiment [15], in experiment [16] and in [17] was greater than 100 µM each time.
